Test results as given in ChEMBL document CHEMBL1201862, “PubChem BioAssay data set” (2004).
Calls of active or inactive are those of the source.

Experiments:
[1] = target: T1, Heat shock factor protein 1 (Mus musculus, UniProt P38532); test: inhibition of MG132-induced HSE-luciferase signal, confirmation, cell-based, NIH3T3, luminescence, dose retest (AID 2382); assay type: functional;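 also: NIH3T3 fibroblasts with HSF1-driven luciferase reporter stressed by proteasome inhibitor MG132; luminescence from HSF1-driven luciferase expression after 8 hours of MG132 stress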
T1 sequence (P38532 whole entry): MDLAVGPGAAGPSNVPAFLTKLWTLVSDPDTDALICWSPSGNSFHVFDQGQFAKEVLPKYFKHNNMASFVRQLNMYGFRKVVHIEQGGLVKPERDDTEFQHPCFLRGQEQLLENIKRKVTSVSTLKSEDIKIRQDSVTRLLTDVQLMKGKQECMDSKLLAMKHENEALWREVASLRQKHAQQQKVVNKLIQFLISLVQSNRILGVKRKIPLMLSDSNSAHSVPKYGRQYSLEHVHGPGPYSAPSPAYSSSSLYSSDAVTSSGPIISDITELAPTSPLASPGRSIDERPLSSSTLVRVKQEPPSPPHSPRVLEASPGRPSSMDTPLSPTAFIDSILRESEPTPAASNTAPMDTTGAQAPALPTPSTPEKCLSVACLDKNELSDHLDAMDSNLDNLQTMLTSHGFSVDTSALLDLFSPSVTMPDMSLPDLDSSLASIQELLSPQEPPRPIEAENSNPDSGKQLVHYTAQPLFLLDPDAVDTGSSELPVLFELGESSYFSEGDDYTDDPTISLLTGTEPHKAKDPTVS

[2] = target: T2, E3 ubiquitin-protein ligase XIAP (Homo sapiens, UniProt P98170); test: Counter Screen using XIAP-Bir3 for Chemical Antagonists of Bir1/2 domains of IAP-family anti-apoptotic proteins. [Related pubchem assays (depositor defined):AID1018, AID1449, AID1514, AID1638, AID1749, AID1750, AID488957, AID488963]
[3] = target: T2, E3 ubiquitin-protein ligase XIAP; test: XIAP antagonists, biochemical, IAP family, fluorescence polarization (AID 1018); assay type: functional
[4] = THP-1 cell cytotoxicity, dose response, cytotoxicity control for non-replicating M. tuberculosis project (AID 489025); assay type: functional
[5] = Vero E6 cell cytotoxicity, dose response, cytotoxicity control for non-replicating M. tuberculosis project, secondary assay (AID 492998); assay type: functional, VeroE6; details: Vero C1008
[6] = cells; assay type: functional
[7] = target: T3, RNA-binding protein pos-1 (Caenorhabditis elegans, UniProt G5EF15); test: inhibitors of POS-1/mex-3 RNA binding, dose response, biochemical, fluorescence polarization (AID 1964);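 also: purified POS-1 fused to maltose binding protein made in E. coli; potency of compounds blocking POS-1 binding to fluorescent RNA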
T3 sequence (G5EF15 whole entry): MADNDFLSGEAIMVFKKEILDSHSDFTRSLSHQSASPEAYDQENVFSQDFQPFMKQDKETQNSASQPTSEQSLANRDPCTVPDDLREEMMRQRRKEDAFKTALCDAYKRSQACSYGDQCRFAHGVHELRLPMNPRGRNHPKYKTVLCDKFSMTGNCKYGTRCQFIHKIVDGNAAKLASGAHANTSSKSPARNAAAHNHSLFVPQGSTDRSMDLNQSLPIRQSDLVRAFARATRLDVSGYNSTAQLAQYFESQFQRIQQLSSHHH

[8] = target: T4, Zinc finger protein mex-5 (Caenorhabditis elegans, UniProt Q9XUB2); test: MEX-5/TCR-2 RNA interaction inhibitors, dose response, biochemical, C. elegans, fluorescence polarization (AID 1960)
T4 sequence (Q9XUB2 whole entry): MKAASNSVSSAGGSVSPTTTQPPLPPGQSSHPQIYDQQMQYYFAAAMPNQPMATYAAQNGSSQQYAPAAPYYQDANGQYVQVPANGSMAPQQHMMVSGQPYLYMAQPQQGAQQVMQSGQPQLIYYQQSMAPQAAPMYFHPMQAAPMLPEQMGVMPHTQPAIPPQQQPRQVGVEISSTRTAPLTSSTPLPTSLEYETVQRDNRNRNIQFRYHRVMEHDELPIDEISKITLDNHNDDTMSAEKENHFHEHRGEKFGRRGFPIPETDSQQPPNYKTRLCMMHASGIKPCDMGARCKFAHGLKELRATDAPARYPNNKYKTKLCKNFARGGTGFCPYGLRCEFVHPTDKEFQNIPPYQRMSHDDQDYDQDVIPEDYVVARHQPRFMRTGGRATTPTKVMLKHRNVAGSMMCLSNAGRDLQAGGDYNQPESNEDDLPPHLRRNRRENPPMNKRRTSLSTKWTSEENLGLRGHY

[9] = target: Ion channel NompC (Danio rerio, UniProt Q7T1G6); test: Dose response cell-based high-throughput screening assay for agonists of the transient receptor potential channel N1 (TRPN1). [Related pubchem assays (depositor defined):AID1424, AID1448]; assay type: functional
[10] = target: T5, Mucolipin-3 (Homo sapiens, UniProt Q8TDD5); test: Fluorescence counterscreen assay for […] agonists: dose response cell-based high-throughput screening assay to identify agonists of the transient receptor potential channel ML3 (TRPML3). [Related pubchem assays: 1424, 1448 ]; assay type: functional
T5 sequence (Q8TDD5 whole entry): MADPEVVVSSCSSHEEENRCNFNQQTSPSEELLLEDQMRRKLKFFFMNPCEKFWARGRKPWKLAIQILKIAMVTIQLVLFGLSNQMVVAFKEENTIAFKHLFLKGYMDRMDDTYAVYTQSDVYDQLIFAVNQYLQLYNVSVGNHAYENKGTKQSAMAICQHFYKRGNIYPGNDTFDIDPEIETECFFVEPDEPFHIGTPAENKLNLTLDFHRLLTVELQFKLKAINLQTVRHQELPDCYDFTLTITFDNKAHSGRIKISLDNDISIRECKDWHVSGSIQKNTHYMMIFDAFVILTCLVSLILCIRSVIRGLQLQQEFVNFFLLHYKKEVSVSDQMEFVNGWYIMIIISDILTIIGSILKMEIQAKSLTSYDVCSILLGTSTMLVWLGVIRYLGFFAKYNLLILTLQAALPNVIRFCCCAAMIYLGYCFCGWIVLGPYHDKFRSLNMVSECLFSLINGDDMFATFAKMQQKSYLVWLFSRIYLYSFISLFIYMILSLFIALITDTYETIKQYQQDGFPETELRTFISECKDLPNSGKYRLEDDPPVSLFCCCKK

[11] = target: T6, Tyrosine-protein phosphatase non-receptor type 7 (Homo sapiens, UniProt P35236); assay type: functional
T6 sequence (P35236 whole entry): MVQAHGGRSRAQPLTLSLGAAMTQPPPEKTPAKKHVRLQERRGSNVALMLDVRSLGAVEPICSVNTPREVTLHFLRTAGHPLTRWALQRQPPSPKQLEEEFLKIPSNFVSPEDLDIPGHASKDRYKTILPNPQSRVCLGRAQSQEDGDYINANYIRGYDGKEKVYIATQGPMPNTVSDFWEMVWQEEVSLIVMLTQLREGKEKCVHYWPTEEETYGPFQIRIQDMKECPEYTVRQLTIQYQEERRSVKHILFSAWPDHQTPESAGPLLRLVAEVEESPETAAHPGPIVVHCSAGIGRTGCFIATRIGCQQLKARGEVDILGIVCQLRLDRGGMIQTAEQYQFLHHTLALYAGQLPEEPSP

[12] = target: Glyceraldehyde-3-phosphate dehydrogenase (Homo sapiens, UniProt P04406)
[13] = target: T7, Dual specificity protein phosphatase 6 (Rattus norvegicus, UniProt Q64346)
T7 sequence (Q64346 whole entry): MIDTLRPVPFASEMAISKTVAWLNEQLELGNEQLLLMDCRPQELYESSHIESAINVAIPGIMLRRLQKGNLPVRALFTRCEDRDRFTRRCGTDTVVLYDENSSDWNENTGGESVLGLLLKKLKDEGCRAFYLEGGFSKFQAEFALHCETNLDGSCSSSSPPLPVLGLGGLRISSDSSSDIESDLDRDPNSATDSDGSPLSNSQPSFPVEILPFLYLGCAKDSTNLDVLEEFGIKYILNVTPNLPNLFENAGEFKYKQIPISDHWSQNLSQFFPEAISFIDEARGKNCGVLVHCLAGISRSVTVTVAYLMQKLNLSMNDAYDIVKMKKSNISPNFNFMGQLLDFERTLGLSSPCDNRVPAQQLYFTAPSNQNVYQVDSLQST

[14] = target: T7, Dual specificity protein phosphatase 6; assay type: functional
[15] = target: T8, Calpain-2 catalytic subunit (Sus scrofa, UniProt P43367); test: pig calpain II inhibitor potency, dose response, biochemical, fluorogenic peptide substrate (AID 1420); assay type: functional
T8 sequence (P43367 whole entry): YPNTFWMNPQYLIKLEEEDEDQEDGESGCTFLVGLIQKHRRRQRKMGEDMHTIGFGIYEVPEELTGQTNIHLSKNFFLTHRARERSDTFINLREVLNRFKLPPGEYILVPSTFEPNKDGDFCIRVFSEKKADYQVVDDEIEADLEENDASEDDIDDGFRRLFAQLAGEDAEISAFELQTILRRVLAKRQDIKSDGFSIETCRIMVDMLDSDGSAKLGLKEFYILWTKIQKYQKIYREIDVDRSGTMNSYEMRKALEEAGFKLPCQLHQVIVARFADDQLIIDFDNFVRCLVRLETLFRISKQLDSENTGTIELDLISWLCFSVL

[16] = target: T6, Tyrosine-protein phosphatase non-receptor type 7; test: redox-dependent HePTP inhibition, mechanism study, biochemical, fluorescence (AID 2068); assay type: functional
[17] = target: Alkaline phosphatase, placental type (Homo sapiens, UniProt P05187); test: PLAP enzyme inhibitors, confirmation, biochemical, luminescence (AID 1512); assay type: functional
[18] = target: T9, Alkaline phosphatase, tissue-nonspecific isozyme (Homo sapiens, UniProt P05186); test: human TNAP enzyme inhibitors, SAR follow-up, biochemical, luminescent, dose response (AID 1056)
T9 sequence (P05186 whole entry): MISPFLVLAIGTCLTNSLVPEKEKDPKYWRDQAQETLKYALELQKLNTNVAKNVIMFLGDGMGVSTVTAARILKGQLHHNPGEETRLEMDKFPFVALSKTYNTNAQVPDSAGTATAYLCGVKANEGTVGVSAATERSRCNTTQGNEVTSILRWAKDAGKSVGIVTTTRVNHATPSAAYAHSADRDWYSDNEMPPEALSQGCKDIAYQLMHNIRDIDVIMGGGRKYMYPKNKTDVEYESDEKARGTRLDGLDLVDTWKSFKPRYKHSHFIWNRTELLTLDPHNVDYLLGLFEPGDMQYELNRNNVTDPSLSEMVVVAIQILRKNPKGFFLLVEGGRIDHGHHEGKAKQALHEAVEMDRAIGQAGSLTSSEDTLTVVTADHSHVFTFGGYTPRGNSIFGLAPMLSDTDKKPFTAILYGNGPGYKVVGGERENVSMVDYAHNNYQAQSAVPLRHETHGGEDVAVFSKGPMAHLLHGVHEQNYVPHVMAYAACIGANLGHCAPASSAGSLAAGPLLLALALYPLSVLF

[19] = target: Voltage-gated N-type calcium channel alpha-1B subunit/Amyloid beta A4 precursor protein-binding family A member 1 (Homo sapiens, UniProt Q00975+Q02410); test: disruptors of Mint-PDZ/N-type channel peptide interaction – biochemical, HTRF, set 2, SAR follow-up (AID 434980); assay type: functional
[20] = Luminescent dose response cell-based high throughput screening assay for inhibitors of the Janus kinase 2 mutant JAK2V617F. [Related pubchem assays: 1446 (Primary screen.), 1521 (Confirmation assay.), 1486 (Counter screen.)]; assay type: functional
[21] = target: Eukaryotic translation initiation factor 4H (Homo sapiens, UniProt Q15056); test: human eIF4H binding inhibitors, primary screen, translation initiation inhibitor project, biochemical, uHTS, fluorescence polarization (AID 2012)
[22] = target: Polyadenylate-binding protein 1 (Homo sapiens, UniProt P11940); test: PABP poly(A) RNA binding inhibitors, primary screen, biochemical, fluorescence polarization, uHTS (AID 2014)
Chain of Polyadenylate-binding protein 1 (P11940 whole entry): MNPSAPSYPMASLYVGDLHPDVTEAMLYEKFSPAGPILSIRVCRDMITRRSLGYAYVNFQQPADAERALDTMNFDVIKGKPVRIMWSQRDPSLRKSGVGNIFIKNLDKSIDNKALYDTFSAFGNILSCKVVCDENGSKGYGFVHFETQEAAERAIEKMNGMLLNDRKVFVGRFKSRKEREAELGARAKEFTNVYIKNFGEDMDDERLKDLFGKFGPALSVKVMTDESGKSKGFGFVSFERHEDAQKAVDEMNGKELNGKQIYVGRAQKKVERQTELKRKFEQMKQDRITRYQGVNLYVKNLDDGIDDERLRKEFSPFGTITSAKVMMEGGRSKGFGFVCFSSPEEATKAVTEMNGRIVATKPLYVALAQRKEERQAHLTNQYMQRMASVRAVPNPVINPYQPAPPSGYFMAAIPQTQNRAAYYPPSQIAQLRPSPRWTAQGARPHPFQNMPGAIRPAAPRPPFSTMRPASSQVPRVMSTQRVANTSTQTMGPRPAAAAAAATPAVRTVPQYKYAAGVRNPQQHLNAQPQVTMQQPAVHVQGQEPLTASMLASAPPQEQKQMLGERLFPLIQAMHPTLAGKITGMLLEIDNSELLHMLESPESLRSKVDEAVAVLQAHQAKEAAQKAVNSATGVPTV

T2 sequence (P98170 whole entry): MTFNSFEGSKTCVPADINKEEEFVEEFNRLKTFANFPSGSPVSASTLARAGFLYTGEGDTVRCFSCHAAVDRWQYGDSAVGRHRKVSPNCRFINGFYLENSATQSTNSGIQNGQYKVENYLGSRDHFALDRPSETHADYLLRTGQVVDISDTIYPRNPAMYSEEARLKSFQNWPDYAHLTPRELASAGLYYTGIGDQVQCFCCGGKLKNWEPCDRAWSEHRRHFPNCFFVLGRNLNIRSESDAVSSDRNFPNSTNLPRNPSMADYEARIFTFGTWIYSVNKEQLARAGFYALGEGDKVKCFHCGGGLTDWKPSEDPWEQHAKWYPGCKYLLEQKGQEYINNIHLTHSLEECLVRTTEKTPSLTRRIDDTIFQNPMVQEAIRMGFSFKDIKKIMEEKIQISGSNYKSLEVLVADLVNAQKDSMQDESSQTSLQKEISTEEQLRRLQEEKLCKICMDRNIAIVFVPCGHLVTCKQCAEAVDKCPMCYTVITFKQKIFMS
Chain of Alkaline phosphatase, placental type (P05187 whole entry): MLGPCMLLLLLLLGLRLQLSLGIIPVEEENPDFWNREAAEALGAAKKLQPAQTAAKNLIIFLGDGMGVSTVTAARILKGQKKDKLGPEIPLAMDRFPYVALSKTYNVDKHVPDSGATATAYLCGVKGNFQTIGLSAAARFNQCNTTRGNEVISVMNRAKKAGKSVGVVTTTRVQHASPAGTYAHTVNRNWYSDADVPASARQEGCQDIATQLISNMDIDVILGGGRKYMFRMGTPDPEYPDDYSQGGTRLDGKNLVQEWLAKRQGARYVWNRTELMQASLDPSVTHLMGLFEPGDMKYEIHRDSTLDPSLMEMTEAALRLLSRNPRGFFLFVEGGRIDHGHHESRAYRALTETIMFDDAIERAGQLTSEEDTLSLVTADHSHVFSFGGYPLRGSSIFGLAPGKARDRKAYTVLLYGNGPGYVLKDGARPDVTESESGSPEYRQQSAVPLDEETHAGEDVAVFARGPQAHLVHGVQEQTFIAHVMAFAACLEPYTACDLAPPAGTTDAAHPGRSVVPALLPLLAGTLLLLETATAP
Chain of Ion channel NompC (Q7T1G6 whole entry): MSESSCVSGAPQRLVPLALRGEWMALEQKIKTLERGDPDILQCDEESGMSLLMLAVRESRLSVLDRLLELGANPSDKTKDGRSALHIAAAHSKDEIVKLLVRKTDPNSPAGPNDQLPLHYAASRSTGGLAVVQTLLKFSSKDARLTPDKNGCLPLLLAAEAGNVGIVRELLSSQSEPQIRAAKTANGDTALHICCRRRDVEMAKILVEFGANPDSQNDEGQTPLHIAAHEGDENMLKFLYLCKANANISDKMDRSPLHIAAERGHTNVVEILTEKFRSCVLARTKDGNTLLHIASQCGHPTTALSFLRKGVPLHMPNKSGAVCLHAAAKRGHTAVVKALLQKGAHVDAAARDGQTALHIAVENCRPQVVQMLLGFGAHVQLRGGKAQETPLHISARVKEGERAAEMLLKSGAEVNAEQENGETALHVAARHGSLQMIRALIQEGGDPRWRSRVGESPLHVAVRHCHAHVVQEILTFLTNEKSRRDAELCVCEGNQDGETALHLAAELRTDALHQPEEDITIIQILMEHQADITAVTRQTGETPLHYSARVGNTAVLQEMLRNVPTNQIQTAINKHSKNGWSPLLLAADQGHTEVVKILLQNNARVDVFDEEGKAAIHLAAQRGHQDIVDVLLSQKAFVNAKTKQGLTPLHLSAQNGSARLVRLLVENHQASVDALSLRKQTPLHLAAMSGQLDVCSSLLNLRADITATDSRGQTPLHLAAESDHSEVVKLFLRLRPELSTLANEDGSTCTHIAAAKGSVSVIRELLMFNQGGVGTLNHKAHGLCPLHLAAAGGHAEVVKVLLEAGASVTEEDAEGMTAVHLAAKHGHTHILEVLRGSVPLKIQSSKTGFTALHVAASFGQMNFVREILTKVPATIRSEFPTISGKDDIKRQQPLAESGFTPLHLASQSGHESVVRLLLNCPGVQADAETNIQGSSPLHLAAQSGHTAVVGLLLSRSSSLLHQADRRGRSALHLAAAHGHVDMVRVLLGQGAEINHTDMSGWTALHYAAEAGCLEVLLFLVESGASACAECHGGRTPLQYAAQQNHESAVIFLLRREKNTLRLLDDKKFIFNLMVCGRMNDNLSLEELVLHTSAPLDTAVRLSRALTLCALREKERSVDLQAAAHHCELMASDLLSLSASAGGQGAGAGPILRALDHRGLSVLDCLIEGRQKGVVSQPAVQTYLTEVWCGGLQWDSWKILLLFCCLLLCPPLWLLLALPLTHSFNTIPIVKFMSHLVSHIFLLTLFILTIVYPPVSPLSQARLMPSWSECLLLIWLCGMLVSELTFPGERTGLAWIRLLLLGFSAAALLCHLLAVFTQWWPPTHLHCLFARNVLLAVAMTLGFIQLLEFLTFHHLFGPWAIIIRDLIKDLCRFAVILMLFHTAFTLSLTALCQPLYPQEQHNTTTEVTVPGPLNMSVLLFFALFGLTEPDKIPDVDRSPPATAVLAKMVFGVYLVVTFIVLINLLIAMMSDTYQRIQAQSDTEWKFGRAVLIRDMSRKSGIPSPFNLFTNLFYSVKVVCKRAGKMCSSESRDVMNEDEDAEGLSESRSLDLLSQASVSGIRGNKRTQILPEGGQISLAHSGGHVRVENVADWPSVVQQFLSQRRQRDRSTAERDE
Chain of Glyceraldehyde-3-phosphate dehydrogenase (P04406 whole entry): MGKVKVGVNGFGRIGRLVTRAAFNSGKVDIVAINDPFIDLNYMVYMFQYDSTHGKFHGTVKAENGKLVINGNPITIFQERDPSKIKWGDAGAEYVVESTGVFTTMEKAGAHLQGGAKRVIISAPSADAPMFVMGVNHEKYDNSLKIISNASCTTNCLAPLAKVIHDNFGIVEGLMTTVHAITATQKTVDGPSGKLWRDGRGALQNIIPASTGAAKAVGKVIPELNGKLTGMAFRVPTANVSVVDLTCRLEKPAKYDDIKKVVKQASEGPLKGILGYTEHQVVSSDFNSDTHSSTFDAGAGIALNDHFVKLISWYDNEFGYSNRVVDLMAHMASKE

O=C(c1ccc(O)cc1)c1ccc(C(=O)O)c(C(=O)O)c1
EC50 [1]: > 195 µM (not active) | IC50 [2]: > 100 µM (inactive) | IC50 [3]: > 100 µM (not active)

COc1cccc(/C=C2\SC(=S)N(CCC(=O)N3CCCCC3)C2=O)c1
CC50 [4]: 18.6 µM (active) | CC50 [5]: 8.75 µM (active) | IC50 [6]: 17.2 µM (active)

CC(C)/C=C1\CC/C(=C\c2ccc(N(C)C)cc2)C1=O
EC50 [7]: > 300 µM (not active) | EC50 [8]: > 300 µM (inconclusive) | EC50 [9]: 507 nM (active) | EC50 [10]: 1.9 µM (active)

C[C@@H](C(N)=O)n1c(=O)n(Cc2ccccc2)c(=O)n(-c2ccccc2)c1=O
IC50 [11]: > 100 µM (not active) | IC50 [12]: > 100 µM (not active) | IC50 [13]: > 100 µM (inactive) | IC50 [14]: > 100 µM (inactive)

COc1ccc(/C=C(\NC(=O)c2ccccc2Cl)C(=O)NCCCC(=O)O)cc1
IC50 [2]: > 100 µM (inactive) | IC50 [3]: > 100 µM (not active) | IC50 [15]: > 50 µM (not active)

COc1cc(C(=S)NCc2ccc(F)c(C(F)(F)F)c2)ccc1O
IC50 [16]: 1.65 µM (active) | IC50 [14]: > 100 µM (inactive)

CCn1c(SCC(=O)c2ccc(O)c(O)c2)nnc1-c1ccc(OC)cc1
IC50 [17]: 8.31 µM (inactive) | IC50 [18]: > 100 µM (inactive)

O=C(Nc1ncc(-c2ccccc2)s1)c1cc(-c2ccco2)nc2ccccc12
IC50 [19]: 18 µM (active)

COc1ccc(-n2nnnc2SCC(=O)c2ccc(O)c(O)c2)cc1
IC50 [20]: 1.46 µM (active) | IC50 [17]: 1.42 µM (active) | IC50 [18]: 5.93 µM (active)

CN1/C(=C/c2cccc[n+]2CCO)Sc2ccccc21
IC50 [21]: > 100 µM (inactive) | IC50 [22]: 1.87 µM (active)
